The record followed here is PubChem BioAssay (NCI).

The experiment relates to SN12K1 renal. The experiment in a line: growth of human tumour cells (NCI), 48 h.

Where “and” joins values, the source holds several entries; their conditions need not be identical. Identical values can stand only once.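 Dose response: 5 concentrations. Exposure: 48 h. Format: 96-well plates. Endpoint: linear interpolation; highest concentration if not reached. At the GI50, growth is halved. TGI denotes the concentration required for complete inhibition of growth.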

As to `Nc1ccn([C@@H]2C=C(CO)[C@@H](O)[C@H]2O)c(=O)n1`, the GI50 is 0.0625 µM; the TGI was 83.8 µM and 160 µM.
